Assay results: US20260306460A1, “COMPOSITION FOR REMOVING AND INHIBITING SENESCENT CELLS, AND USES THEREOF” (LIFECEUTIX CO., LTD., priority 2023, published 2026)

Tests used:
[1] = system: naturally aged C57BL6J mice; assay: SASP mRNA (MMP3, IL1B, MMP12, IL6, MMP13) in naturally aged mice, Example 21-6, Table 22; type: in vivo, mouse; details: untreated aged = 100%
Experimental: 22-month-old female C57BL6J mice (KRIBB Laboratory Animal Resource Center) were acclimated to the experimental environment for one week, after which the aged mice were randomly assigned to experimental and control groups. Eight-week-old, non-aged mice served as controls. LX-403 was mixed in a 10% ethanol solution of PEG400 and administered orally at a concentration of 25 mg/kg daily for 21 days, or administered to the skin, joints, or eyes at a concentration of 1 μM. LX-1801 was mixed in distilled water with 4% DMSO, 30% PEG300, and 5% Tween80 and administered to the skin, joints, or eyes at a concentration of 0.4 μM daily for 21 days. LX-2001 was mixed in PBS and administered to the skin, joints, or eyes at a concentration of […] daily for 21 days. LX-2002 was mixed in distilled water with 4% DMSO, 30% PEG300, and 5% Tween80 and administered to the skin, joints, or eyes at a concentration of 2 μM daily for 21 days. […] LX-2005 was mixed in distilled water with 4% DMSO, 30% PEG300, and 5% Tween80 and administered to the skin, joints, or eyes at a concentration of 90 μM daily for 21 days. LX-2007 was mixed in distilled water with 4% DMSO, 30% PEG300, and 5% Tween80 and administered to the skin, joints, or eyes at a concentration of 90 μM daily for 21 days. […] LX-3002 was mixed in distilled water with 4% DMSO, 30% PEG300, and 5% Tween80 and administered orally at a concentration of 10 mg/kg daily for 21 days. […] LX-5411 was mixed in 5% PBS and administered orally at a concentration of 10 mg/kg daily for 21 days or administered to the skin, joints, or eyes at a concentration of 3 μM. LX-5701 was mixed in PBS and administered orally at a concentration of 360 mg/kg daily for 21 days. LX-6807 was mixed in saline and administered intraperitoneally at a concentration of 1 mg/kg daily for 21 days. LX-2101 or LX-2102 was mixed in PBS solution with 5% DMSO and administered intraperitoneally at a concentration of 20 mg/kg or 10 mg/kg, respectively, daily for 21 days. The control group received only the solution in the same volume. After the end of drug administration, the methods described in each example below were performed.
Using cDNA synthesized in the same manner as Example 7-2 of WO2023-085787 A1, qRT-PCR was performed and analyzed for the senescence-associated secretory factors (SASPs) MMP3, IL1B, MMP12, IL6, and MMP13. […] The mRNA levels of each factor after aging induction were calculated as 100% and compared with the mRNA levels of each factor after test compound treatment.

SAOS-2 = assay: Suppression of doxorubicin-senescent SAOS-2 tumors in nude mice, Example 19; type: in vivo, mouse; details: after DOX 10 mg/kg ip; 21 days daily; LX-5701 360 mg/kg po, LX-2101 20 mg/kg ip, LX-2102 10 mg/kg ip; DOX repeated as control
Experimental: Seven-week-old male BALB/c nude mice (KRIBB Laboratory Animal Resource Center) were acclimated to the experimental environment for one week, after which they were randomly assigned to experimental and control groups. Evaluation was performed using the same method as in Example 2-1 of WO2023-085787 A1. Cultured human osteosarcoma cell lines, SAOS-2 (10^6 cells), were mixed in phosphate-buffered saline (PBS) and administered subcutaneously to anesthetized mice using 2% isoflurane (Sigma). When the tumors reached approximately […], doxorubicin (10 mg/kg) was mixed in a 1:1 solution of distilled water and PBS (pH 7.2) and administered intraperitoneally to induce tumor senescence. After 10 days, LX-5701 mixed in PBS at a concentration of 360 mg/kg was administered orally daily for 21 days, or LX-2101 mixed in PBS solution with 5% DMSO at a concentration of 20 mg/kg or LX-2102 mixed in PBS with 5% DMSO at a concentration of 10 mg/kg was administered intraperitoneally daily for 21 days, and then the tumor size was measured. The control group was repeatedly administered a solution mixed with doxorubicin, and then the tumor size was measured.

Row | Compound | MMP13 mRNA (%), Eye [1] | IL1β mRNA (%), Kidney [1] | MMP13 mRNA (%), Knee joint [1] | MMP3 mRNA (%), Liver [1] | MMP12 mRNA (%), Lung [1] | IL6 mRNA (%), Muscle [1] | MMP3 mRNA (%), Skin [1] | MMP12 mRNA (%), Skin [1] | MMP13 mRNA (%), Skin [1] | Tumor Diameter (SAOS-2)
1 | CC1(C)CC[C@]2(NC(=O)C(C)(F)F)CC[C@]3(C)[C@H](C(=O)C=C4[C@@]5(C)C=C(C#N)C(=O)C(C)(C)[C@@H]5CC[C@]43C)[C@@H]2C1 [LX-2101, Omaveloxolone] | 35% | 73% | 46% | 45% | 58% | 69% | 81% | 82% | 38% | 6.8 (±1.4) mm
2 | COC(=O)[C@]12CCC(C)(C)C[C@H]1[C@H]1C(=O)C=C3[C@@]4(C)C=C(C#N)C(=O)C(C)(C)[C@@H]4CC[C@@]3(C)[C@]1(C)CC2 [LX-2102, Bardoxolone methyl] | 71% | 68% | 77% | 56% | 66% | 81% | 83% | 78% | 68% | 7.1 (±2.6) mm
3 | O=C1C2CCN(CC2)C1CNC(=O)C(F)(F)F (stereo not drawn) [LX-5701] | 71% | 58% | 61% | 59% | 70% | 38% | 79% | 71% | 62% | 6.1 (±4.9) mm
